Results as given in publication PMC10046369, “Low-Affinity/High-Selectivity Dopamine Transport Inhibition Sufficient to Rescue Cognitive Functions in the Aging Rat” (Biomolecules, 2023).

How the values were obtained:
Assay in all cases: cell-based
Design in all cases: functional GPCR antagonist screen (Eurofins Cerep), percent inhibition of control agonist response
Conditions in all cases: antagonist effect, against control agonist; read-out: % Inhibition of Control Agonist Response, Mean
S1P3 (h) = biological target: T1, S1P3 (h) (Homo sapiens, UniProt Q99500)
T1 construct: gene S1PR3

S1P2 (h) = biological target: T2, S1P2 (h) (Homo sapiens, UniProt O95136)
T2 construct: gene S1PR2

NMU1 (h) = biological target: T3, NMU1 (h) (Homo sapiens, UniProt Q9HB89)
T3 construct: gene NMUR1

NK3 (h) = biological target: T4, NK3 (h) (Homo sapiens, UniProt P29371)
T4 construct: gene TACR3

motilin (h) = biological target: T5, motilin (h) (Homo sapiens, UniProt O43193)
T5 construct: gene MLNR

MRGX1 / MRGPRX1 (h) = MRGX1 / MRGPRX1 (h) (Homo sapiens, UniProt Q96LB2)
μ (MOP) (h) = biological target: T6, μ (MOP) (h) (Homo sapiens, UniProt P35372)
T6 construct: gene OPRM1

EP2 (h) = biological target: T7, EP2 (h) (Homo sapiens, UniProt P43116)
T7 construct: gene PTGER2

PTH1 (h) = biological target: T8, PTH1 (h) (Homo sapiens, UniProt Q03431)
T8 construct: gene PTH1R

NMU2 (h) = biological target: T9, NMU2 (h) (Homo sapiens, UniProt Q9GZQ4)
T9 construct: gene NMUR2

OX1 (h) = biological target: T10, OX1 (h) (Homo sapiens, UniProt O43613)
T10 construct: gene HCRTR1

M2 (h) = biological target: T11, M2 (h) (Homo sapiens, UniProt P08172)
T11 construct: gene CHRM2

S1P1 (h) = biological target: T12, S1P1 (h) (Homo sapiens, UniProt P21453)
T12 construct: gene S1PR1

M4 (h) = biological target: T13, M4 (h) (Homo sapiens, UniProt P08173)
T13 construct: gene CHRM4

PK2 (h) = biological target: T14, PK2 (h) (Homo sapiens, UniProt Q8NFJ6)
T14 construct: gene PROKR2

NPS (h) = biological target: T15, NPS (h) (Homo sapiens, UniProt Q6W5P4)
T15 construct: gene NPSR1

MC5 (h) = biological target: T16, MC5 (h) (Homo sapiens, UniProt P33032)
T16 construct: gene MC5R

M1 (h) = biological target: T17, M1 (h) (Homo sapiens, UniProt P11229)
T17 construct: gene CHRM1

TP (TXA2/PGH2) (h) = biological target: T18, TP (TXA2/PGH2) (h) (Homo sapiens, UniProt P21731)
T18 construct: gene TBXA2R

NK1 (h) = biological target: T19, NK1 (h) (Homo sapiens, UniProt P25103)
T19 construct: gene TACR1

PAF (h) = biological target: T20, PAF (h) (Homo sapiens, UniProt P25105)
T20 construct: gene PTAFR

S1P4 (h) = biological target: T21, S1P4 (h) (Homo sapiens, UniProt O95977)
T21 construct: gene S1PR4

MC2 (h) = biological target: T22, MC2 (h) (Homo sapiens, UniProt Q01718)
T22 construct: gene MC2R

M3 (h) = biological target: T23, M3 (h) (Homo sapiens, UniProt P20309)
T23 construct: gene CHRM3

PAR2 (h) = biological target: T24, PAR2 (h) (Homo sapiens, UniProt P55085)
T24 construct: gene F2RL1
T24 sequence (P55085 whole entry): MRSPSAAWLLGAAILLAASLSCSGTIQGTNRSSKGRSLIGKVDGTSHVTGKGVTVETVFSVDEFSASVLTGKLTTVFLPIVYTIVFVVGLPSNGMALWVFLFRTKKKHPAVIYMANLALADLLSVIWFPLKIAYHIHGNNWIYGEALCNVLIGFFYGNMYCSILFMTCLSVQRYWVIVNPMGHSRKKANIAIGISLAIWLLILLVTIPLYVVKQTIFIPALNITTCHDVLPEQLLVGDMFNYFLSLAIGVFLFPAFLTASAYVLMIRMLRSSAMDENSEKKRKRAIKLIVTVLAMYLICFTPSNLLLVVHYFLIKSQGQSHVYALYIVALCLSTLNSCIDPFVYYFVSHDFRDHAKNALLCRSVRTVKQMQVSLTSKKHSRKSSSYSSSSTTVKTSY

T4 sequence (P29371 whole entry): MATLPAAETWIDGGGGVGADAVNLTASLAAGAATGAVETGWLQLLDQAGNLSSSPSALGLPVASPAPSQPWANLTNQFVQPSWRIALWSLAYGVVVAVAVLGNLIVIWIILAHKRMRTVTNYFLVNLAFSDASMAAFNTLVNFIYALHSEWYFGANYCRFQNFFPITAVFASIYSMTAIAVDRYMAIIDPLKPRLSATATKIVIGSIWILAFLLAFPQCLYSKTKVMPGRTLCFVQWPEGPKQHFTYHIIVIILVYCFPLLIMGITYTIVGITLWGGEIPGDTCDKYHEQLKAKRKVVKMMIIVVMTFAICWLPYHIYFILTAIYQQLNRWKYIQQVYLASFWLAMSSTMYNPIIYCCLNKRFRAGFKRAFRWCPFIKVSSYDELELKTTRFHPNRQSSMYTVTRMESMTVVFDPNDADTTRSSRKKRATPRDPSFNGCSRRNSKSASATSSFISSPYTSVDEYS
T6 sequence (P35372 whole entry): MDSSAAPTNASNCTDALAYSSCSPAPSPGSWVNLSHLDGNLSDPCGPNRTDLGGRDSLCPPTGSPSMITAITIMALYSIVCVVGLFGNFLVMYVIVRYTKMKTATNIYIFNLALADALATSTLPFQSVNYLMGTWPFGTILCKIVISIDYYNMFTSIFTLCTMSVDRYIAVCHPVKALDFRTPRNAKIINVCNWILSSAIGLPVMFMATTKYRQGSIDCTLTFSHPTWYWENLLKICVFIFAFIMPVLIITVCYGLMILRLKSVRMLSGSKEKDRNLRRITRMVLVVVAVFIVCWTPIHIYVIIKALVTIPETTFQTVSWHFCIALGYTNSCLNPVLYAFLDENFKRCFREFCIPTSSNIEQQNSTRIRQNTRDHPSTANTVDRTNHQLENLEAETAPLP
T5 sequence (O43193 whole entry): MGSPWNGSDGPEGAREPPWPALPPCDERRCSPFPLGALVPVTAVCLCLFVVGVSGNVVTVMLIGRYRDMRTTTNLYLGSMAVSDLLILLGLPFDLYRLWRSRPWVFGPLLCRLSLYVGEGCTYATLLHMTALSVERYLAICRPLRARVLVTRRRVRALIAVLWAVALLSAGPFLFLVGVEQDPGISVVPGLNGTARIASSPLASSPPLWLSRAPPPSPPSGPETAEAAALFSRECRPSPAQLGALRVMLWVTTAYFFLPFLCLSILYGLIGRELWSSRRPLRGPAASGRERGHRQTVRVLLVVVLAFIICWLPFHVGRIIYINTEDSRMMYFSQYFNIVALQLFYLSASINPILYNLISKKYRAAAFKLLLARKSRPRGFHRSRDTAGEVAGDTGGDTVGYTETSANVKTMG
T20 sequence (P25105 whole entry): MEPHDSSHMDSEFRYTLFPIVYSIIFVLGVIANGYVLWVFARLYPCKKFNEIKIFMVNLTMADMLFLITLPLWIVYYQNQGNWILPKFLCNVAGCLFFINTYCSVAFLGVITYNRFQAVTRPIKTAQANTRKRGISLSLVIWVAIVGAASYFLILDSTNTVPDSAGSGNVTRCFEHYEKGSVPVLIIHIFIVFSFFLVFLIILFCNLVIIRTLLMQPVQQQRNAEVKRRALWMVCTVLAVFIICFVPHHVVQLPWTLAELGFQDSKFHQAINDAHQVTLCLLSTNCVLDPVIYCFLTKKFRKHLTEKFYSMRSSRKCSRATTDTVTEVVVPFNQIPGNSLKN
T11 sequence (P08172 whole entry): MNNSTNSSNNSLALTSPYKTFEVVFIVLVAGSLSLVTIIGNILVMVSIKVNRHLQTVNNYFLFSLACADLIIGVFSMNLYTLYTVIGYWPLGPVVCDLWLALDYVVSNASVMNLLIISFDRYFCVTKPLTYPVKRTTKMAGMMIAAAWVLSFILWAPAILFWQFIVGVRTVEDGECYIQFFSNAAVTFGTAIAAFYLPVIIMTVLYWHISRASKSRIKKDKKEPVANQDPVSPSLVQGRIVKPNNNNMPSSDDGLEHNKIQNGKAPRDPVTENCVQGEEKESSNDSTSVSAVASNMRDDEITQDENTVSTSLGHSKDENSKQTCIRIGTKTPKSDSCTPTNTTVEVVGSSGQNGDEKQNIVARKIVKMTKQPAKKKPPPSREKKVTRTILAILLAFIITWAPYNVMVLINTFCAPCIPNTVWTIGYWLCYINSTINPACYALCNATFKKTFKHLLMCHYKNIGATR
T17 sequence (P11229 whole entry): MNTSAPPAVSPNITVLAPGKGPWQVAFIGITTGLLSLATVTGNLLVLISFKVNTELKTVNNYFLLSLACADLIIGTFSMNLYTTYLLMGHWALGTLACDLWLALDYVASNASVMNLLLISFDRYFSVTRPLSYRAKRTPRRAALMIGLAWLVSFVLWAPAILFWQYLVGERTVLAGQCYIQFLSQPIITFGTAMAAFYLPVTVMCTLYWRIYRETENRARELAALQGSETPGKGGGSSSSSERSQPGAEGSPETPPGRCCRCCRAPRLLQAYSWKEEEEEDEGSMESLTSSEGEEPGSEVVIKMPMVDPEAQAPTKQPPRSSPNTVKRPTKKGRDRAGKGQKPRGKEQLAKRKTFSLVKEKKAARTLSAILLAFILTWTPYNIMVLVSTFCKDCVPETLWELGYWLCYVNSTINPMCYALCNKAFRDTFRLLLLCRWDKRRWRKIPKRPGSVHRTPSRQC
T21 sequence (O95977 whole entry): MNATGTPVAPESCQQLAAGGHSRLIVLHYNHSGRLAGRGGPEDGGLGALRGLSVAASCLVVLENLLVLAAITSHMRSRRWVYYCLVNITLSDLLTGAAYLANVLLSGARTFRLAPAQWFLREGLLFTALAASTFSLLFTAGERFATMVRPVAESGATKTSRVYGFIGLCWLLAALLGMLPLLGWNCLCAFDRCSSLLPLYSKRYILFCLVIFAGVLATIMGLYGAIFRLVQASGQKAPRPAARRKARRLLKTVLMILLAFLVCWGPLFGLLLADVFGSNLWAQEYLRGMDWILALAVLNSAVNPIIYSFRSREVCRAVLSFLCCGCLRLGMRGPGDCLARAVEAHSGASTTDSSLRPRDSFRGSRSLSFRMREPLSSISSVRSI
T16 sequence (P33032 whole entry): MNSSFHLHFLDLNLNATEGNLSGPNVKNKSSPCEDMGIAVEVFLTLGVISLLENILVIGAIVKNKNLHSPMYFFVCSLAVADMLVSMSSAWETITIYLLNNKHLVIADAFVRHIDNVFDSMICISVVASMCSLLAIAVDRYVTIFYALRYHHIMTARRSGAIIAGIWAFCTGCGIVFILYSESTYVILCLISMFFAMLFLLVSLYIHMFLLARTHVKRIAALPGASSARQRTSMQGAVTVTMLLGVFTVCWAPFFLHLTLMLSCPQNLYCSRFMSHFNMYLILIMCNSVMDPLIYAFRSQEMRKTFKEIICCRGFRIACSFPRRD
T9 sequence (Q9GZQ4 whole entry): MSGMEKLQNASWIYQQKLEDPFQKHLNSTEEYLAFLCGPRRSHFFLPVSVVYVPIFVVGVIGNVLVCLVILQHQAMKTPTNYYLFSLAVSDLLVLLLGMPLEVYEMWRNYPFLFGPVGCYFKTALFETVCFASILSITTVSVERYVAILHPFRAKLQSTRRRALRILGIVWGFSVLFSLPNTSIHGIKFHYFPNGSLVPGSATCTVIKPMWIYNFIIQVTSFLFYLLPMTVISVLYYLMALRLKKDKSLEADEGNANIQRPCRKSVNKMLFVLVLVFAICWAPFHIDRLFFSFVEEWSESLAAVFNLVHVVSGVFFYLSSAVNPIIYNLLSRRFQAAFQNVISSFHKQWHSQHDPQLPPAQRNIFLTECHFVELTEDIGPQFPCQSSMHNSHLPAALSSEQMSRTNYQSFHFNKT
T22 sequence (Q01718 whole entry): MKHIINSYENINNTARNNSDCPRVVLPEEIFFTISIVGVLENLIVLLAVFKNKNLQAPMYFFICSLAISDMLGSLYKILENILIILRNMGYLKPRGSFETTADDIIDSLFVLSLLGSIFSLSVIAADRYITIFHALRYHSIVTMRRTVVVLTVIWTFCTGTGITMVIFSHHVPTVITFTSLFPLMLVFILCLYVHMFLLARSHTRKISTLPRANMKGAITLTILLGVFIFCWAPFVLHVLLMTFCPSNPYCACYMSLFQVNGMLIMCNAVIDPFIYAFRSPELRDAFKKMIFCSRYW
T18 sequence (P21731 whole entry): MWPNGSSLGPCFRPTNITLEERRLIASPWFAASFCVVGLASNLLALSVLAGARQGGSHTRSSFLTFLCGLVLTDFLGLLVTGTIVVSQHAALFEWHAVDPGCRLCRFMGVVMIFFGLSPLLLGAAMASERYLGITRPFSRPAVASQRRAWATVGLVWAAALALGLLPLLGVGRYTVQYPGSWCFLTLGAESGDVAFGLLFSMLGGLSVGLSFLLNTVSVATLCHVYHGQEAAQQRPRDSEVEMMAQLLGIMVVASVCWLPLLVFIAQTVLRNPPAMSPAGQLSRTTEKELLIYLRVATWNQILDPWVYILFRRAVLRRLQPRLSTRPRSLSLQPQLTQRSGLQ

[O-][S@@+](Cc1cncs1)C(c1ccccc1)c1ccccc1 [S-CE-123, (S)-5-((Benzhydrylsulfinyl)Methyl)Thiazole]
inhibition at 2.8 µM (S1P3 (h)): 12.2%
inhibition at 2.8 µM (S1P2 (h)): -5.2%
inhibition at 2.8 µM (NMU1 (h)): -21.3%
inhibition at 2.8 µM (NK3 (h)): -5.1%
inhibition at 2.8 µM (motilin (h)): -5.2%
inhibition at 2.8 µM (MRGX1 / MRGPRX1 (h)): 4.9%
inhibition at 2.8 µM (μ (MOP) (h)): 5%
inhibition at 2.8 µM (EP2 (h)): 0.7%
inhibition at 2.8 µM (PTH1 (h)): -10.6%
inhibition at 2.8 µM (NMU2 (h)): -17.7%
inhibition at 2.8 µM (OX1 (h)): -14.5%
inhibition at 2.8 µM (M2 (h)): -9.2%
inhibition at 2.8 µM (S1P1 (h)): 5.9%
inhibition at 2.8 µM (M4 (h)): -8.5%
inhibition at 2.8 µM (PK2 (h)): 7.3%
inhibition at 2.8 µM (NPS (h)): -14.3%
inhibition at 2.8 µM (MC5 (h)): -8.9%
inhibition at 2.8 µM (M1 (h)): 2.6%
inhibition at 2.8 µM (TP (TXA2/PGH2) (h)): 2.5%
inhibition at 2.8 µM (NK1 (h)): -5.3%
inhibition at 2.8 µM (PAF (h)): -39.1%
inhibition at 2.8 µM (S1P4 (h)): -14.6%
inhibition at 2.8 µM (MC2 (h)): 3.1%
inhibition at 2.8 µM (M3 (h)): 0.8%
inhibition at 2.8 µM (PAR2 (h)): -19.4%
